{
  "source": "patent US12611443B2",
  "about": "“Methods and compositions related to therapeutic peptides for cancer therapy” (THE UNIVERSITY OF CHICAGO, priority 2018, dated 2026)",
  "key": {"[1]": {"test_system": "human/murine cancer cells", "assay": "In vitro cell viability of cancer cells (calcein-AM, CASP3, ANXA5)", "type": "cell-based", "settings": "ELANE 3 μg/ml", "text": "Cell lines. The ovarian cancer cell lines—CAOV3, OVCAR3, OVCAR4, OVCAR5, A2780, A2780/CP70, HeyA8, TykNu, SKOV3, ID8, and ID8p53-/- were a gift from Dr. Ernst Lengyel, University of Chicago. The breast cancer cell lines—MDA-MB-231, MDA-MB-231.BM1, MCF-7, M6C, E0771, and E0771.LMB were a gift from Dr. Marsha Rosner, University of Chicago. The colon carcinoma cell line RKO, glioblastoma cancer cell line T98G, osteosarcoma cell lines U-2OS and Saos-2, and the hepatocellular carcinoma cell line HepG2 were a gift from Dr. Kay McLeod, University of Chicago. The lung cancer cell line NCI-H552 was a gift from Dr. Stephanie Huang, University of Chicago, and A549 and LLC1 cells were purchased from ATTC. The melanoma cell lines—B16F10, Mel888, Mel1106, and SK-MEL-28 cells were a gift from Dr. Thomas Gajewski, University of Chicago. The pancreatic cancer cell line PANC1 was a gift from Dr. Yamuna Krishnan, University of Chicago. The leukemia cell line K562 was a gift from Dr. Amittha Wickrema, University of Chicago.\nThe prostate cancer cell lines—CWR22Rv1, LAPC4, and LNCaP were a gift from Dr. Donald Vander Griend, University of Chicago. The neuroblastoma cell lines—SK-N-BE(2) and NBL-WN cells were a gift from Dr. Lucy Godley, University of Chicago.\nNeutrophil media collections. Freshly isolated human or murine neutrophils were plated in serum-free DMEM for 24 h. Conditioned media was collected, spun at 500×g for 5 min, and media protein levels were determined with a Bradford assay (Biorad).\nPMN media manipulations. For boiling, PMN media was boiled at 95° C. for 5 min and spun at 15,000×g for 10 min to remove precipitated proteins. For dialysis, PMN media was placed into a Slide-a-Lyzer™ cassette (3.5 kDa cutoff, ThermoFisher Scientific) and dialyzed against 2×4L of PBS at 4° C. for 4 h. For PMSF-inactivation, PMN media was treated with PMSF (1 mM, Sigma) or A1AT (42 nM, Athens Research & Technology) and incubated at room temperature for up to 2 h. Residual PMSF was eliminated with a PD-10 desalting column (GE Healthcare Life). Inhibition of ELANE catalytic activity was confirmed using a chromogenic substrate activity assay (see below). For serum-spiking experiments, human, mouse, or fetal bovine serum (1% or 10%) was added to PMN media prior to or after exposing cancer cells. For immune-depletion studies, ELANE or ECP were immunoprecipitated using anti-ELANE (N2C3, GeneTx) or anti-ECP (MB S2535165, MyBioSource) coupled to Pierce™ Protein A/G Magnetic Beads (ThermoFisher Scientific).\nIn vitro cell viability assays. […] Luminescence was measured using a Victor X3 luminometer (PerkinElmer)."}, "MDA-MB-231 cells": {"test_system": "MDA-MB-231 cells", "assay": "Resistance to ELANE, repeated exposure in vitro", "type": "cell-based, human", "settings": "7 exposures, ˜90% death/exposure", "text": "To explore whether cancer cells could acquire resistance to ELANE, a combination of in vitro and in vivo approaches were used."}, "tumor immune cells": {"test_system": "tumor immune cells", "assay": "Tumor immune cell analysis by flow cytometry", "type": "in vivo, mice", "protocol": "Tumor immune cell analysis. […] Cells were labeled with various antibodies and analyzed by flow cytometry. Data were quantified by FlowJo v.10.4.1. Antibodies included: CD45 (47-0451), CD11b (25-0112), MHCII (11-5321), CD4 (17-0041), CD8 (12-0081), CD44 (25-0441) from ThermoFisher Scientific; CD3 (560527), CD62L (561917), from BD Biosciences, and Ly6G (127614) from BioLegend.\nAssessment of potential side-effects. ELANE or PMSF-ELANE (11.6 μg/100 μL) were injected into the 4th mammary fat pad of the right ventral side pad of tumor-free C57BL/6 mice once/day for 5 days. One day after the last injection, mice were studied for potential side-effects. Body weight and spleen weight were measured. Apoptosis at the injection site was studied by isolating, fixing, and staining mammary adipose tissue for TUNEL, cCASP3, and cPARP using identical methods described for tumors above. Mammary adipose tissue immune cell populations at the injection site were determined by flow cytometry using identical methods described for tumors above. Liver function was assessed by measuring plasma ALT activity with the Alanine Transaminase Colorimetric Activity Assays Kit (Cayman Chemical)."}, "[2]": {"test_system": "E0771 and B16F10 1° and 2° tumors", "assay": "Abscopal effect studies", "type": "in vivo, C57BL/6 mice", "protocol": "Abscopal effect studies. For the E0771 model, 0.5×10^6 cells were injected into the 4th mammary fat pad of the right ventral side (1° tumor) and 0.4×10^6 cells were injected into the 4th mammary fat pad of the left ventral side (2° tumor) of C57BL/6 mice. Once the 1° tumor reached ˜100 mm^3, ELANE or PMSF-ELANE (11.6 μg/100 μL) were injected IT into the 1° tumor once/day for 5 days, and 1° and 2° tumor volumes were measured by calipers. For the B16F10 model, 0.5×10^6 cells were injected into the flank (1° tumor). 7 days later, 0.2×10^6 cells were injected into the lateral tail vein to create 2° lung metastases. Once the 1° tumor reached ˜100 mm^3, ELANE or PMSF-ELANE (11.6 μg/100 μL) were injected IT into the 1° tumor once/day for 5 days, and the 1° tumor volume was measured by calipers. Lungs were excised 10 days after the final ELANE treatment, and 2° lung metastases were counted. For CD8^+ T cell depletion, anti-mouse CD8α (clone 2.43, Bio X Cells) or rat IgG2b (isotype control, Bio X Cells) were injected IV (200 μg/injection) 3 days before the first ELANE treatment, and once/week after the last ELANE treatment. CD8^+ T cell depletion was confirmed by flow cytometry.\nFor the ‘spillover control’, 0.5×10^6 E0771 cells were injected into the 4th mammary fat pad of the left ventral side (2° tumor). ELANE or PMSF-ELANE (11.6 μg/100 μL) were injected into the tumor-free 4th mammary fat pad of the right ventral side pad once/day for 5 days, and 2° tumor volume was measured by calipers.\nFor the ‘specificity control’, 0.5×10^6 E0771 cells were injected into the into the 4th mammary fat pad of the right ventral side (1° tumor) and 7 days later, 1×10^6B16F10 cells were injected into the flank (2° tumor). Once the 1° tumor reached ˜100 mm^3, ELANE or PMSF-ELANE (11.6 μg/100 μL) were injected IT into the 1° tumor once/day for 5 days, and 1° and 2° tumor volumes were measured by calipers."}},
  "data": [
    {"substance": "ELANE: neutrophil elastase, a serine protease released by human PMNs", "values": [
      {"measurement": "apoptosis in cancer cell lines", "setting": "[1]", "value": "effectively induced apoptosis in all cancer cell lines tested"},
      {"measurement": "acquired resistance after repeated exposure in vitro", "setting": "MDA-MB-231 cells", "value": "did not confer resistance"},
      {"measurement": "immune cells at injection site of tumor-free mice", "setting": "tumor immune cells; mammary fat pads of tumor-free mice", "value": "Immune cell increases were not observed"},
      {"measurement": "tumor immune cells", "setting": "tumor immune cells; three immunocompetent models", "value": "increased the number of dendritic cells (DCs), CD8^+ T cells, and CD8^+ T effector cells (CD8^+Teff) in all three immunocompetent models tested"},
      {"measurement": "number of 2° lung metastases", "setting": "[2]; 1° B16F10 tumor treated, 12 μg/day for 5 days", "value": "lowered the number of lung metastases"},
      {"measurement": "tumorigenesis in 2° B16F10 tumor (specificity control)", "setting": "[2]; 1° E0771 tumor treated", "value": "did not impact tumorigenesis in a 2° B16F10 tumor"},
      {"measurement": "tumorigenesis at 1° and 2° E0771 tumors", "setting": "[2]; 1° tumor treated, 12 μg/day for 5 days", "value": "attenuated tumorigenesis at both sites"},
      {"measurement": "abscopal effect after depleting CD8+ T cells", "setting": "[2]; both models", "value": "attenuated ELANE's abscopal effect in both models"},
      {"measurement": "tumorigenesis after injection into contralateral site", "setting": "[2]; opposite the tumor, tumor-bearing mice", "value": "failed to attenuate tumorigenesis"}
    ]}
  ]
}
